Laboratory results from paper PMC10650756, “Synthesis and In Vivo Antiarrhythmic Activity Evaluation of Novel Scutellarein Analogues as Voltage-Gated Nav1.5 and Cav1.2 Channels Blockers” (Molecules, 2023).

How the values were obtained:
Assay type in all cases: cell-based
Nav1.5 = molecular target: T1, Nav1.5 (Homo sapiens, UniProt Q14524); assay: whole-cell patch clamp in transfected HEK293 cells; steady-state inactivation left-shifted at […], no change in current density or activation
T1 construct: gene SCN5A; human Nav1.5 (pCDNA3.1hSCN5A) expressed in HEK293 cells

Cav1.2 [1] = molecular target: T2, Cav1.2 (Homo sapiens, UniProt Q13936); assay: whole-cell patch clamp of ICa in transfected HEK293 cells, VH -80 mV; IC50 undefined (solubility); settings: read-out: % reduction of ICa amplitude at 30 μM
T2 construct: gene CACNA1C; human Cav1.2 expressed in HEK293 cells (plasmid printed as pCDNA3.1hCACNA2D)

Cav1.2 [2] = molecular target: T2, Cav1.2; assay: whole-cell patch clamp of ICa in transfected HEK293 cells, VH -80 mV; settings: read-out: % reduction of ICa amplitude at 1 μM

T2 sequence (Q13936 whole entry): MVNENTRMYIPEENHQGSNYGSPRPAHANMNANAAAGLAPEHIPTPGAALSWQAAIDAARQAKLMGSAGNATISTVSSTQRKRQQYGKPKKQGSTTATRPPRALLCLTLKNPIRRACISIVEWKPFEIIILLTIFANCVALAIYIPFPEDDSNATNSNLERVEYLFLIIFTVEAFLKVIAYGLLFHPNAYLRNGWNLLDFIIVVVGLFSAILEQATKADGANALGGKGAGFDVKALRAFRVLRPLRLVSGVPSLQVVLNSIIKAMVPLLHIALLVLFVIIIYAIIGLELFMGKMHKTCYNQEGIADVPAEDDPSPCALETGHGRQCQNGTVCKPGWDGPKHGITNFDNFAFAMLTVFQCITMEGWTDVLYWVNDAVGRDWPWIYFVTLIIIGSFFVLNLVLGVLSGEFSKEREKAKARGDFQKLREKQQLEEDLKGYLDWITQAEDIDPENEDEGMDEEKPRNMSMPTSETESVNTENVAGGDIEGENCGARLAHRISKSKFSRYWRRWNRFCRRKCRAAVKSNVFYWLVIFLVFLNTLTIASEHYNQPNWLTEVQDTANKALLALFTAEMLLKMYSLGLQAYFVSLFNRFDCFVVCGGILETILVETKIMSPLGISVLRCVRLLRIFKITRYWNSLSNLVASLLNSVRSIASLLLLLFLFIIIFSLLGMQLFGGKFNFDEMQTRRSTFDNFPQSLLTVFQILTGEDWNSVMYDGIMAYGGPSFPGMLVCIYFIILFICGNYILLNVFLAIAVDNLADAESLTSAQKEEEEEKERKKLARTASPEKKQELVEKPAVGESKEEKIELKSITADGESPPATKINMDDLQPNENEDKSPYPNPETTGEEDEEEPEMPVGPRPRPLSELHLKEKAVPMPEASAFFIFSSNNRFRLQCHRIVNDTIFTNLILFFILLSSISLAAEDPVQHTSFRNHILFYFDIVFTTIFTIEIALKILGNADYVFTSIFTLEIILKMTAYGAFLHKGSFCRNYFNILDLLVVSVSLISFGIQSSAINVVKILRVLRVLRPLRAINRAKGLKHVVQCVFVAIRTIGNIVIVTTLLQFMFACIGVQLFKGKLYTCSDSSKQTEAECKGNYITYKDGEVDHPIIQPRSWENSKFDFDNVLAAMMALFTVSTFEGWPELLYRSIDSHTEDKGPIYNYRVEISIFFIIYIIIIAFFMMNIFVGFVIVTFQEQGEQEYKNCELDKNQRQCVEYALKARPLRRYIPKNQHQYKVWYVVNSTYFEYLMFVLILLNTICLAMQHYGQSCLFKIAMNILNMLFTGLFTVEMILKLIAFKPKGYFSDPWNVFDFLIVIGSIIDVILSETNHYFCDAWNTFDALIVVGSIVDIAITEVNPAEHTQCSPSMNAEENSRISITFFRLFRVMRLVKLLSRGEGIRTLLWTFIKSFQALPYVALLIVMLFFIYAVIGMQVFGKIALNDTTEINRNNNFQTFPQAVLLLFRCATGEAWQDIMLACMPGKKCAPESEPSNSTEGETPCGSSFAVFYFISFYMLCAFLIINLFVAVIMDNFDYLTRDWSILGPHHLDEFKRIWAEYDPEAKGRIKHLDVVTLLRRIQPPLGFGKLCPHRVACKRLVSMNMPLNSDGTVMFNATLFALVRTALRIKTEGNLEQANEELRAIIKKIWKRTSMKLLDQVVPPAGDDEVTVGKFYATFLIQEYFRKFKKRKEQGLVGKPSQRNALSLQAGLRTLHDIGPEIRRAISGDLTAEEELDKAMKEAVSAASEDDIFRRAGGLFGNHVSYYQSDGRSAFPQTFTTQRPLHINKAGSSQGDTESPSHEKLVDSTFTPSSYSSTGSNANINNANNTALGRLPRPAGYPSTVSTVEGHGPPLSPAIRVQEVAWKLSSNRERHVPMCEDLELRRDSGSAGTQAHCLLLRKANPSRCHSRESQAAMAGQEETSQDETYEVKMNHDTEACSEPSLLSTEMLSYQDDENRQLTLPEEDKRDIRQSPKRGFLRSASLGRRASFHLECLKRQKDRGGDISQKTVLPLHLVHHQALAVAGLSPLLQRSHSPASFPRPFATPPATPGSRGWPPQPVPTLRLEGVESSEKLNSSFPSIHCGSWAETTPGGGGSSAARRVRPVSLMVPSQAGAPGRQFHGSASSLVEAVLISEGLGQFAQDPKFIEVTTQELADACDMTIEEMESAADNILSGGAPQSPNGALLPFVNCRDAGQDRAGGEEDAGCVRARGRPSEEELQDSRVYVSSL
T1 sequence (Q14524 whole entry): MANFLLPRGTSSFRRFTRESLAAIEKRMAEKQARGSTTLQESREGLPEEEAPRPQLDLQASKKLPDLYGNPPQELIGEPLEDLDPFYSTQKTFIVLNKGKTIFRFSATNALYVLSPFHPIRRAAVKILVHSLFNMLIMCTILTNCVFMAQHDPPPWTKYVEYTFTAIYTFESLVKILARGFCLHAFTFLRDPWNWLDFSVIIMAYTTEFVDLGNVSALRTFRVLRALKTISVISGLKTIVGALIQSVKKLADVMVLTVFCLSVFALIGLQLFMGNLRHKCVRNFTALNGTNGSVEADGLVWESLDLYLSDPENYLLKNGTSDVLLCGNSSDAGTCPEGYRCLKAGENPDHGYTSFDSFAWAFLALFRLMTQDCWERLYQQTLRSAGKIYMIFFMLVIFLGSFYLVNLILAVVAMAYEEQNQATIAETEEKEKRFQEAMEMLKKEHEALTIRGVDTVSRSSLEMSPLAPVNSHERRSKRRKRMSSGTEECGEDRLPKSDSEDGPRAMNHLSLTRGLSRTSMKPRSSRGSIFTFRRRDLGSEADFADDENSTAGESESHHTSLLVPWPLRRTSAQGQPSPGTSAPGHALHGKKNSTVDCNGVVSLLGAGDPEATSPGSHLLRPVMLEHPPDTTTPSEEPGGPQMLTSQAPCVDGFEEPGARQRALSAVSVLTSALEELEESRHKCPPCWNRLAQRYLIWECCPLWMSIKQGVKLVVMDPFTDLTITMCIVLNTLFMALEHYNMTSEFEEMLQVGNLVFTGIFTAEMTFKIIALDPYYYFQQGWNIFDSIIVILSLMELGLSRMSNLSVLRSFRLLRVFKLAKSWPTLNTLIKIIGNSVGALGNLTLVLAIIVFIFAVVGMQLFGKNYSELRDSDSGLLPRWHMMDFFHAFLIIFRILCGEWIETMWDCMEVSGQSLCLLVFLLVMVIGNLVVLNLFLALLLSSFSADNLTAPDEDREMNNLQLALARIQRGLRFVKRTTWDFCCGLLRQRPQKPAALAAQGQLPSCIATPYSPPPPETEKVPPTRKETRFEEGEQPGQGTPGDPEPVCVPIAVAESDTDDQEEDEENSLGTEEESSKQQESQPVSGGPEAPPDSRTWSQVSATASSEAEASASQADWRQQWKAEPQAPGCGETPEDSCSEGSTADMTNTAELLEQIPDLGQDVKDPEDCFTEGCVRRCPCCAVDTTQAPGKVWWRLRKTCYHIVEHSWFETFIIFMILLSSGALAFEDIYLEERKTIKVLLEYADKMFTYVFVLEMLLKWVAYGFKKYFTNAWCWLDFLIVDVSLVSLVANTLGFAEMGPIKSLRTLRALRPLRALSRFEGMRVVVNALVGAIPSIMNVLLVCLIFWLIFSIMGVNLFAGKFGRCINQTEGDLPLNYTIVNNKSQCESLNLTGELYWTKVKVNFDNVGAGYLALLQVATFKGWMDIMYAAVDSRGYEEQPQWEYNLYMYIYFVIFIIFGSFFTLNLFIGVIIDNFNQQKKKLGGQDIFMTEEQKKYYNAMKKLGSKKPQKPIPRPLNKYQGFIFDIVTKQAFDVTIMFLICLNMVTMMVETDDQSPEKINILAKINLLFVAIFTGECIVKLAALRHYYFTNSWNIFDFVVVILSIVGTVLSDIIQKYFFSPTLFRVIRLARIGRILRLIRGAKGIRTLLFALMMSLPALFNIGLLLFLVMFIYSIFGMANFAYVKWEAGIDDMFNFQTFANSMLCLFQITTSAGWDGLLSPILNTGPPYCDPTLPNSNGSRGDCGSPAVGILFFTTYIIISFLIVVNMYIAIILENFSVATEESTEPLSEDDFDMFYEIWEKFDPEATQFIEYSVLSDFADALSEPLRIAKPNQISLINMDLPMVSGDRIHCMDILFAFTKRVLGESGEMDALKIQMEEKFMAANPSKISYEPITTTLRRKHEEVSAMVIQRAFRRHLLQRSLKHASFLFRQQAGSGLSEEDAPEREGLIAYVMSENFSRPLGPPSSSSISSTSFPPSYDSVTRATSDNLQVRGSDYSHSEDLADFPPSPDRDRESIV

SMILES	whole-cell patch clamp in transfected HEK293 cells; steady-state inactivation le (Nav1.5)	inhibition at 30 µM (Cav1.2 [1])	inhibition at 1 µM (Cav1.2 [2])
CC(=O)Oc1ccc(-c2cc(=O)c3c(O)c4c(cc3o2)OC(c2ccccc2)(c2ccccc2)O4)cc1 [10e, 4-(9-Hydroxy-8-oxo-2,2-diphenyl-8H-[1,3]dioxolo[4,5-g]chromen-6-yl)phenyl acetate]	−94.1 ± 1.7 mV (inactivation V1/2 at 30 μM; control −84.4 ± 0.6 mV)	~32.6%	
COC(=O)C1=C(C)NC(C)=C(C(=O)OC)C1c1ccccc1[N+](=O)[O-] [Nifedipine]			~97.9%
